How the values were obtained:
Nucleic Acid [1] = assay: Intrinsic association constant for DNA; assay type: nucleic-acid assay, Bos taurus
Nucleic Acid [2] = assay: Melting temperature (Tm) of DNA in the presence of compound (5 uM); assay type: functional; conditions: Bos taurus
Nucleic Acid [3] = assay: Melting temperature (Tm) of DNA in the absence of the compound; assay type: functional; conditions: Bos taurus
[4] = Concentration of compound required for reduction of the fluorescence of ethidium bromide; assay type: functional
Nucleic Acid [5] = assay: Apparent association constant for DNA; assay type: nucleic-acid assay, Bos taurus

Work on `CC[n+]1c(-c2ccccc2)c2cc(N)ccc2c2ccc(N)cc21.[Br-]` [HOMIDIUM BROMIDE] yielded a Ki (Nucleic Acid [1]) of 360000 M⁻¹.

Work on `CNc1ccc2ccccc2c1` yielded a Ki (Nucleic Acid [1]) of 2200 M⁻¹.

Work on `CN(C)Cc1cccc2ccc(-c3ccc4cccc(CN(C)C)c4c3)cc12` yielded a Tm (Nucleic Acid [2]) of 81.2 °C, a Ki (Nucleic Acid [1]) of 800000 M⁻¹ and a Tm (Nucleic Acid [3]) of 75 °C. For the same molecule, the C50 [4] was 7.2 µM and the Ki (Nucleic Acid [5]) was 100000 M⁻¹.
